Reference: patent publication US12678421B2, “Composition for enhancing NAMPT gene expression” (DAICEL CORPORATION, priority 2020, dated 2026)

Legend:
PGC-1α = PGC-1α expression level and acetyl PGC-1α level in Caco-2 cells (Western blotting, immunoprecipitation); type: cell-based, human; conditions: 10 μM, 24 hours after addition, vs DMSO control (FIGS. 5-1, 5-2)
Method: (§1) Caco-2 cells were passaged in the same manner as in Example 1 and used for testing. Caco-2 cells were seeded in a 5-mL dish at a cell concentration of 3×10^5 cells/dish, and equol was added in the same manner as in Example 1. In addition, a control and a positive control were prepared in the same manner as well.
The medium was removed 24 hours after the addition of equol, the cells were washed with PBS, and then cellular proteins were extracted. The extracted proteins were subjected to Western blotting using an anti-PGC-1α antibody (ab77210, abcam, Cambridge, UK) to measure the expression level of PGC-1α. Furthermore, after immunoprecipitation using an anti-acetylated-lysine antibody (#9441S, Cell Signaling Technology, Danvers, MA, USA), the acetyl PGC-1α level was measured by Western blotting.

SIRT1 gene [1] = assay: SIRT1 gene expression in C2C12 cells (real-time PCR); type: cell-based, mouse; conditions: C2C12 cells (myotubes), 10 μM, 24 hours after addition, relative to β-actin, vs DMSO control (FIG. 8)
Method: (§2) Mouse skeletal muscle-derived myoblast cell line C2C12 cells (Muscle, Myoblast, Mus musculus, mouse, ATCC CRL-1772 (strain C3H)) were passaged using DMEM (containing 10% FBS, antibiotics (penicillin and streptomycin), and NaHCO3) medium in a CO2 incubator under conditions of 37° C., 5% CO2, and 95% air.
(§3) After the C2C12 cells reached about 90% confluence, the serum in the medium was replaced with inactivated horse serum, and the serum concentration was lowered to 2% to induce differentiation. Cells on day 5 after differentiation induction were used as C2C12 myotubes for testing.
(§4) C2C12 cells were seeded in a 12-well plate at a cell concentration of 3×10^5 cells/dish, and equol dissolved in DMSO was added at a final concentration of 10 μM after 24 hours and 48 hours. In addition, the same amount of DMSO was added to a control, and resveratrol was added to a positive control at a final concentration of 10 μM.
(§5) Cells were harvested 24 hours after the addition of equol, and total RNA was extracted. cDNA was synthesized using the total RNA and was used as a template for real-time PCR. […] In addition, the relative gene expression level was calculated using β-actin, which is a housekeeping gene, by dividing the measured value by the expression level of β-actin.

PGC-1α gene [2] = assay: PGC-1α gene expression in Caco-2 cells (real-time PCR); type: cell-based, human; conditions: 10 μM, 24 hours after addition, relative to β-actin, vs DMSO control (FIG. 3)
Method: (§6) Human colon cancer-derived cell line Caco-2 cells (colon, epithelial-like, colorectal adenocarcinoma, human, ATCC HTB-37) were passaged using DMEM (containing 10% FBS, antibiotics (penicillin and streptomycin), and NaHCO3) medium in a CO2 incubator under conditions of 37° C., 5% CO2, and 95% air, and used for testing.
as §4, with “Caco-2” for “C2C12”, “resveratrol (Wako Pure Chemical Industries, Ltd.)” for “resveratrol”
(§7) Cells were harvested 24 hours after the addition of equol, and total RNA was extracted. cDNA was synthesized using the total RNA and was used as a template for real-time PCR. Real-time PCR was performed using a primer of each gene and the prepared cDNA to measure the expression level of each gene. In addition, the relative gene expression level was calculated using β-actin, which is a housekeeping gene, by dividing the measured value by the expression level of β-actin. The orientation of the primer sequences is 5′ to 3′ from left to right.

Caco-2 cells [3] = assay: Intracellular mitochondria in Caco-2 cells (MitoTracker staining, imaging cytometer); type: cell-based, human; conditions: 10 μM, 24 hours after addition, vs DMSO control (FIG. 6)
Method: as §1, with “μClear Fluorescence Black Plate (Greiner Bio-one)” for “5-mL dish”, “5×10^3” for “3×10^5”
(§8) Mitochondria were stained using MotoTracker Red CMXRos (Invitrogen Corporation) 24 hours after the addition of equol. The cells were subjected to NI Cell Analyzer 1000 Imaging Cytometer (GE Healthcare Bio-Sciences Corp, Piscataway, NJ, USA) to detect intracellular mitochondria, and the image data were digitized using “mito Tracker” of NI Cell Analyzer 1000 Workstation (GE Healthcare Bio-Sciences Corp, Piscataway, NJ, USA).

SIRT1 gene [4] = assay: SIRT1 gene expression in Caco-2 cells (real-time PCR); type: cell-based, human; conditions: 10 μM, 24 hours after addition, relative to β-actin, vs DMSO control (FIG. 2)
Method: as §6
as §4, with “Caco-2” for “C2C12”, “resveratrol (Wako Pure Chemical Industries, Ltd.)” for “resveratrol”
as §7

NAMPT gene [5] = assay: NAMPT gene expression in Caco-2 cells (real-time PCR); type: cell-based, human; conditions: 10 μM, 24 hours after addition, relative to β-actin, vs DMSO control (FIG. 1)
Method: as §6
as §4, with “Caco-2” for “C2C12”, “resveratrol (Wako Pure Chemical Industries, Ltd.)” for “resveratrol”
as §7

NAMPT gene [6] = assay: NAMPT gene expression in C2C12 cells (real-time PCR); type: cell-based, mouse; conditions: C2C12 cells (myotubes), 10 μM, 24 hours after addition, relative to β-actin, vs DMSO control (FIG. 7)
Method: as §2, §3, §4, §5

Caco-2 cells [7] = assay: Intracellular NAD^+/NADH quantification in Caco-2 cells; type: cell-based, human; conditions: 10 μM, 24 hours after addition, vs DMSO control (FIG. 4)
Method: as §1
The medium was removed 24 hours after the addition of equol, the cells were washed with PBS, then intracellular NAD^+ and NADH were measured using an NAD^+/NADH quantification kit (BioVision, San Francisco, USA), and the NAD^+/NADH ratio was determined.

C2C12 cells = assay: Intracellular mitochondria in C2C12 myotubes (MitoTracker staining, imaging cytometer); type: cell-based, mouse; conditions: 10 μM, 72 hours after addition, vs DMSO control (FIG. 10)
Method: as §8
as §3, with “C2C12 cells were passaged in the same manner as in Example 7 and used for testing. C2C12 cells were seeded in a μClear Fluorescence Black Plate (Greiner Bio-one) at a cell concentration of 1×10^4 cells/well. After” for “After”, “the” for “the C2C12”
Equol was added in the same manner as in Example 1. In addition, the same amount of DMSO was also used for a control.
The number of mitochondria was measured 72 hours after the addition of equol in the same manner as in Example 4.

PGC-1α gene [8] = assay: PGC-1α gene expression in C2C12 cells (real-time PCR); type: cell-based, mouse; conditions: C2C12 cells (myotubes), 10 μM, 24 hours after addition, relative to β-actin, vs DMSO control (FIG. 9)
Method: as §2, §3, §4, §5

Which “deacetylation of PGC-1α (acetyl PGC-1α level)” value (PGC-1α) does the source give for Oc1ccc([C@H]2COc3cc(O)ccc3C2)cc1 [equol, 4′,7-isoflavandiol] here?
Its value is “promote deacetylation of PGC-1α”.

And the “expression level of PGC-1α (protein, Western blotting)” value (PGC-1α)?
The value was “increased the expression level of PGC-1α”.

And the “expression level of SIRT1 gene” value (SIRT1 gene [1])?
The value was “increased the expression levels”.

What about the “expression level of PGC-1α gene” value (PGC-1α gene [2]) of the same compound?
The value was “increased the expression levels”.

What about the “number of intracellular mitochondria” value (Caco-2 cells [3]) of the same compound?
Its value is “increased the number of intracellular mitochondria”.

And the “expression level of SIRT1 gene” value (SIRT1 gene [4])?
Its value is “increased the expression levels”.

And the “expression level of NAMPT gene” value (NAMPT gene [5])?
The value was “increased the expression levels”.

And the “expression level of NAMPT gene” value (NAMPT gene [6])?
The value was “increased the expression levels”.

What about the “NAD^+ (NAD^+/NADH ratio)” value (Caco-2 cells [7]) of the same compound?
The value was “increased NAD^+”.

And the “number of intracellular mitochondria” value (C2C12 cells)?
The value was “increased the number of intracellular mitochondria”.

What about the “expression level of PGC-1α gene” value (PGC-1α gene [8]) of the same compound?
Its value is “increased the expression levels”.
